Results as given in patent publication US11819552B2, “Antibody-drug conjugates targeting uPARAP” (RIGSHOSPITALET, priority 2016, dated 2023).
Where a SMILES comes first, the peptide text is derived from it. [ ]: non-standard residue; d: D form. The star is where a group is joined. Dolaproine = CO[C@@H]([C@@H]1CCCN1)[C@@H](C)C(=O)O; Dil = CC[C@H](C)[C@H](NC)[C@@H](CC(=O)O)OC; X1 = C[C@@H](N*)[C@@H](O)c1ccccc1; NMeV = CN[C@H](C(=O)O)C(C)C

Key:
HT1080 cells = test: Cell cycle distribution analysis; format: cell-based; conditions: 3-day incubation, 50 nM free toxin
Description: (§1) Cell cycle analysis was performed using a Nucleocounter NC-3000 system (ChemoMetec Denmark), using the manufacturers standard protocol for analyzing the cell cycle distribution of a population of cells, based on the DNA content of each cell. The percentage of cells in Sub-G1, G1, S, or G2/M-phases of the cell cycle was established from histogram analysis using the NucleoView NC-3000 software.

THP-1 cells = test: Cell cycle distribution analysis; format: cell-based; conditions: 3-day incubation, 50 nM free toxin
Description: as §1

KNS42 cells = test: Cell cycle distribution analysis; format: cell-based; conditions: 3-day incubation, 50 nM free toxin
Description: as §1

U937 cells = test: Cell cycle distribution analysis; format: cell-based; conditions: 3-day incubation, 50 nM free toxin
Description: as §1

uPARAP = biological target: T1, uPARAP (Homo sapiens, UniProt Q9UBG0); test: Western blotting of MG63 cell lysate; format: binding; design: endogenous in cells; host or cells: MG63 human osteosarcoma cells; conditions: detergent lysate of uPARAP-positive MG63 human osteosarcoma cells
T1 sequence (Q9UBG0 31-1479): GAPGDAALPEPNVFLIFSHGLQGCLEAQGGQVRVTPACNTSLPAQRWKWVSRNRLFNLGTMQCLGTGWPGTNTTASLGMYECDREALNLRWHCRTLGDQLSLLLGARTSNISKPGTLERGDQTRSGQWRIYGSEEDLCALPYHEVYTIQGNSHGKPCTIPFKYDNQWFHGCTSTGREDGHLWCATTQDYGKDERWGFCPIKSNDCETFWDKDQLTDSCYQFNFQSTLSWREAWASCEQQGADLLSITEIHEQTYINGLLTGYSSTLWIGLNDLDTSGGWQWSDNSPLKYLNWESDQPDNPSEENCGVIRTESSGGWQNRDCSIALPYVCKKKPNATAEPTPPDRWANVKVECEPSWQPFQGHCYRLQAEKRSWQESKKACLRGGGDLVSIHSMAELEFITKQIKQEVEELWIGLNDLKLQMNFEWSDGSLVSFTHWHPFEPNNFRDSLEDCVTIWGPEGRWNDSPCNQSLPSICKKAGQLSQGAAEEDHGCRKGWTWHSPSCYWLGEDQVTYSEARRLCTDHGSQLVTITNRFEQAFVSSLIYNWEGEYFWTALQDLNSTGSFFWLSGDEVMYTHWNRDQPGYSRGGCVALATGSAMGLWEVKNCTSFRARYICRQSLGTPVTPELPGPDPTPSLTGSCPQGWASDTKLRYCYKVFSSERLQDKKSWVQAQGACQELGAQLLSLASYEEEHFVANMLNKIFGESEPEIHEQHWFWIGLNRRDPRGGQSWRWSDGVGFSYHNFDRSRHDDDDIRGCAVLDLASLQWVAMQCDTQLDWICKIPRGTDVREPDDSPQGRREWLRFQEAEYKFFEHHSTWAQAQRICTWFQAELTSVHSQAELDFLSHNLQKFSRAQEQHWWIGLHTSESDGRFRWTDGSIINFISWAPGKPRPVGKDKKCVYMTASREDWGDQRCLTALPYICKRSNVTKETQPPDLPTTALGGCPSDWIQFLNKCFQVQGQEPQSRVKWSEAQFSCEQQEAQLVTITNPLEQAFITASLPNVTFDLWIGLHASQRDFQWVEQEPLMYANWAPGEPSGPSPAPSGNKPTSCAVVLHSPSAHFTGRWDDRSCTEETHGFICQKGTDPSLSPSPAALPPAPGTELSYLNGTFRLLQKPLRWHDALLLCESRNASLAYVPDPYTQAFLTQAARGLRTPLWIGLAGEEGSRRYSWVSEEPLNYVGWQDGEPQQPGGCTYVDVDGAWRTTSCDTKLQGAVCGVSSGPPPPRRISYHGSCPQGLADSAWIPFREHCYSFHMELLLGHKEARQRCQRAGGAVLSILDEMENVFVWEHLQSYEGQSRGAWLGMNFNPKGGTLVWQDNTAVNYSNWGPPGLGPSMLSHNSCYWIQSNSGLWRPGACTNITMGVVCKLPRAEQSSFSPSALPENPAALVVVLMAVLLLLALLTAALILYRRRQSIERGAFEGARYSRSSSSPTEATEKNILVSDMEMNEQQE
Description: For Western blotting, a detergent cell lysate prepared from uPARAP-positive MG63 human osteosarcoma cells was analyzed, using identical concentrations of “2h9 cloned” and “2h9 original” as the primary antibodies. […] No reaction is seen in the absence of primary antibody (negative control).

CC[C@H](C)[C@@H]([C@@H](CC(=O)N1CCC[C@H]1[C@H](OC)[C@@H](C)C(=O)N[C@H](C)[C@@H](O)c1ccccc1)OC)N(C)C(=O)[C@@H](NC(=O)[C@@H](NC)C(C)C)C(C)C [MMAE, monomethyl auristatin E, reference compound] (H-[NMeV]V[Dil][Dolaproine]-X1)
Cell cycle distribution (HT1080 cells): shift in cell cycle distribution towards the Sub-G1 and G2/M phases
Cell cycle distribution (THP-1 cells): shift in cell cycle distribution towards the Sub-G1 and G2/M phases
Cell cycle distribution (KNS42 cells): shift in cell cycle distribution towards the Sub-G1 and G2/M phases
Cell cycle distribution (U937 cells): shift in cell cycle distribution towards the Sub-G1 and G2/M phases

B1: 2h9 cloned: recombinant mAb 2h9 product produced in CHO cells from SEQ ID NO: 1 and SEQ ID NO: 5 (protein)
light: DIQMTQSPASQSASLGESVTITCLASQTIGTWLAWYQQKPGKSPQLLIYAATTLTDGVPSRFSGAGSGTKFSLKISSLQAEDFASYFCQEFFSTPFTFGSGTKLELKRADAAPTVSIFPPSSEQLTSGGASVVCFLNNFYPKDINVKWKIDGGERQNGVLNSWTDQDSKDSTYSMSSTLTLTKDEYERHNSYTCEATHKTSTSPIVKSFNRNEC
heavy: QVQLQQPGTELVRPGLSVKLSCKASGYTFTSYWMNWVKQRPGQGLEWIGMIHPSNDEKRINQKFKDKATLTVDKFSSTVYMQVSSPTSEDSAVYYCARGGGDYVGDYALDFWGQGTSVTVSSAKTTPPSVYPLAPGSAAQTNSMVTLGCLVKGYFPEPVTVTWNSGSLSSGVHTFPAVLQSDLYTLSSSVTVPSSTWPSETVTCNVAHPASSTKVDKKIVPRDCGCKPCICTVPEVSSVFIFPPKPKDVLTITLTPKVTCVVVDISKDDPEVQFSWFVDDVEVHTAQTQPREEQFNSTFRSVSELPIMHQDWLNGKEFKCRVNSAAFPAPIEKTISKTKGRPKAPQVYTIPPPKEQMAKDKVSLTCMITDFFPEDITVEWQWNGQPAENYKNTQPIMDTDGSYFIYSKLNVQKSNWEAGNTFTCSVLHEGLHNHHTEKSLSHSPGK
Reactivity in Western blotting (uPARAP): react specifically with the uPARAP protein
Reactivity in Western blotting (uPARAP; listed as recombinant antibody product): specifically recognize uPARAP
